Source: US6511979B1, “Methods for treating conditions modulated by lactosylceramide” (Johns Hopkins University, priority 1998, dated 2003)
Entries after “also recorded” stand apart in the source; their conditions may differ.

How the values were obtained:
GlcT-1 = molecular target: T1, GlcT-1 (Homo sapiens, UniProt Q16739); conditions: reported in literature; cited from earlier work
T1 sequence (Q16739 1-394): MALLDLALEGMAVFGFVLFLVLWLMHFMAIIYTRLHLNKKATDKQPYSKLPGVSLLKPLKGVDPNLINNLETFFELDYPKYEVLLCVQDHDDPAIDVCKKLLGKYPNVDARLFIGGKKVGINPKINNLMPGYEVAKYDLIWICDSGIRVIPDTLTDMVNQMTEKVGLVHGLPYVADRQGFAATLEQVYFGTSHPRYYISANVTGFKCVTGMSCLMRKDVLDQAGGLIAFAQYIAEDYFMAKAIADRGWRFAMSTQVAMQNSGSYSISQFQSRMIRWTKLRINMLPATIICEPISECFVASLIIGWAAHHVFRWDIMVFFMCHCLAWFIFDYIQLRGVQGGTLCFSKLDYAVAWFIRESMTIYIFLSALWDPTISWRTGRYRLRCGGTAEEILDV

vascular cells = conditions: reported in literature; cited from earlier work
GalT-2 = GalT-2 activity assay (standard in vitro GalT-2 assay / GalT-2 enzyme assay); type: cell-based
Excerpt: Preferred in vitro detection assays according to the present invention involve one or more steps associated with LacCer-related pathways. Such assays include the following steps 1) through 4):
1) culturing a population of LacCer-responsive cells with LacCer;
2) adding a known or candidate GalT-2 enhancing compound to the cells;
3) measuring activity of a cell molecule or function in the LacCer-related pathway; and
4) determining the effect of the known or candidate GalT-2 enhancing compound on the cell, e.g., by measuring activity of the cell molecule or function. Typically, the cell function will be one or more of cell proliferation, cell adhesion or expression of specified surface proteins on the cells. Examples of cell molecules include LacCer-responsive enzymes as specified below.
That assay can effectively measure the capacity of the GalT-2 enhancing compound to promote GalT-2 activity. References herein to a “standard in vitro GalT-2 assay” or other similar phrase refers to the above protocol of steps 1) through 4) when the specified cell molecule measured in step 3) above is GalT-2. As described in more detail below, other in vitro assays of the invention measure specified cell molecules in the LacCer-related steps or pathways. The in vitro assays of the present invention can be conducted with nearly any population of cells responsive to LacCer as provided below. […]

LacCer-responsive cells [1] = test: cell proliferation in LacCer-responsive cells; type: cell-based
Protocol: Preferably, the GalT-2 enhancing compound promotes cell proliferation by at least 10 to 25%, preferably at least about 50%, relative to a suitable control assay. In such an assay, between about 0.1 to 100 μM, preferably between about 1 to 50 μM of a desired GalT-2 enhancing compound is used. Exemplary cell proliferation assays include counting viable cells and monitoring activity of specified citric acid cycle enzymes such as lactate dehydrogenase. A preferred assay measures incorporation of one or more detectably-labeled nucleosides into DNA, e.g., by:
a) culturing suitable cells in medium and adding 1) a candidate GalT-2 enhancing compound and 2) a radiolabeled nucleoside such as ^3H-thymidine typically in an amount between about 0.1 to 100 μCi;
b) incubating the cells, e.g., for about 6-24 hours, and typically followed by washing; and
The measurement can be achieved by several methods including trichloroacetic acid (TCA) precipitation of labeled DNA on filters followed by scintillation counting. See e.g., Chatterjee, S., Biochem. Biophys. Res Comm. (1991) 181:554; Chatterjee, S. et al. (1982) Eur. J. Biochem. 120:435 for disclosure relating to this assay.
References herein to a “standard in vitro cell proliferation assay” or other similar phrase refer to an assay that includes the above steps a) through c). […]

LacCer-responsive cells [2] = test: cell adhesion in LacCer-responsive cells; type: cell-based
Protocol: Preferably, the GalT-2 enhancing compound increases cell adhesion by at least 25%, preferably at least 50% or more relative to a suitable control assay. In such an assay, between about 0.1 to 100 μM, preferably between about 1 to 50 μM of a desired GalT-2 enhancing compound is used. For example, a preferred cell adhesion assay includes the following steps:
a) labeling a first population of immune cells, preferably certain leukocytes, with a detectable label which can be a chromatic, radioactive, luminescent (e.g., fluorescent, or phosphorescent), or enzymatic label capable of producing a detectable label, […]
References herein to a “standard in vitro cell adhesion assay” or other similar phrase refer to an assay that includes the above steps a) through c). The detection in step c) can be achieved by a variety of methods such as microscopy (by manually counting cells), particularly confocal microscopy and fluorescence-based photomicroscopy involving FACS; automated cell sorting techniques, immunological methods such as ELISA and RIA; and scintillation counting. […]
A preferred in vitro cell adhesion assay measures polymorphonuclear leukocytes (PMNs and/or monocytes) or platelets and increased endothelial cell adhesion before, during or after contact with a desired GalT-2 enhancing compound. […] Adhering cells are then quantitated by standard methods such as by use of a fluorescence plate reader. […]

## CCCCCCCCCC(=O)NC(CN1CCOCC1)C(O)c1ccccc1 [D-PDMP, 1-phenyl-2-decanolylamino-3-morpholino-1-propanol]
GlcT-1
  effect on GlcT-1: inhibits GlcT-1
Vascular cells
  effect on proliferation of vascular cells: reduces proliferation of vascular cells

## CCCCCCCCCC(=O)N[C@@H](CN1CCOCC1)C(O)c1ccccc1 (stereo partly drawn) [L-PDMP, L-1-phenyl-2-decanoylamino-3-morpholino-1-propanol]
GalT-2
  effect on GalT-2 activity: increase the activity of GalT-2; also recorded: effectively stimulating GalT-2
LacCer-responsive cells [1]
  effect on proliferation in LacCer-responsive cells: increasing proliferation
LacCer-responsive cells [2]
  effect on adhesion in LacCer-responsive cells: increasing proliferation and adhesion
